Our source for the IC50 values is ChEMBL document CHEMBL1268851, “Anti-inflammatory Biphenyls and Dibenzofurans from Rhaphiolepis indica” (J Nat Prod, 2010).

Structures are written as SMILES.

A short description of this test: Antiinflammatory activity in human neutrophils assessed as inhibition of fMLP-indcued superoxide production after 5 mins. In kind it is functional, cell-based. The note with it: Neutrophil.
With `COc1c2c(c3c(oc4c(OC)cccc43)c1OC)OCO2`, the 50% inhibitory concentration (IC50) is > 100 µM. With `COc1c(O)cc2c(oc3c(OC)cccc32)c1OC` the figure was 27.4 µM; with `COc1cc(O)cc(-c2ccccc2O)c1`, 2.04 µM; with `COc1cc(O)cc(-c2ccccc2OC)c1`, 8.36 µM. The figure for `COc1cc(O)cc(-c2ccccc2)c1` is 34.1 µM. The figure for `COc1c(O)cc2c(oc3c(OC)ccc(OC)c32)c1OC` is 7.61 µM; for `CC(C)Cc1ccc(C(C)C(=O)O)cc1` (stereo not drawn) [IBUPROFEN] it is 27.5 µM; for `COc1c(O)cc2c(oc3cccc(OC)c32)c1OC` it is 27.4 µM.
